Laboratory results from ChEMBL document CHEMBL5260810, “Inhibition of bromodomain-containing protein 9 for the prevention of epigenetically-defined drug resistance” (Bioorg Med Chem Lett, 2017).

system: AMO1; test: Cytotoxicity against human AMO1 cells measured after 8 days; type: functional, cell-based; conditions: AMO1, 192 h

Compound	IC50 [µM]
C/C=C/Cn1cc(-c2ccc(C(C)(C)O)cc2OC)c2cc[nH]c2c1=O	20

system: EB-3; test: Cytotoxicity against human EB-3 cells measured after 8 days; type: functional, cell-based; conditions: EB-3, 192 h

Compound	IC50 [µM]
C/C=C/Cn1cc(-c2ccc(C(C)(C)O)cc2OC)c2cc[nH]c2c1=O	20

system: not listed separately; test: Cytotoxicity against human MOLM16 cells measured after 8 days; type: functional, cell-based, MOLM-16; conditions: MOLM16, 192 h

Compound	IC50 [µM]
C/C=C/Cn1cc(-c2ccc(C(C)(C)O)cc2OC)c2cc[nH]c2c1=O	17.8

system: NCI-H1355; test: Cytotoxicity against human NCI-H1355 cells measured after 8 days; type: functional, cell-based; conditions: NCI-H1355, 192 h

Compound	IC50 [µM]
C/C=C/Cn1cc(-c2ccc(C(C)(C)O)cc2OC)c2cc[nH]c2c1=O	20

system: not listed separately; test: Cytotoxicity against human NCI-H2023 cells measured after 8 days; type: functional, cell-based; conditions: NCI-H2023, 192 h

Compound	IC50 [µM]
C/C=C/Cn1cc(-c2ccc(C(C)(C)O)cc2OC)c2cc[nH]c2c1=O	20

system: not listed separately; test: Cytotoxicity against human NCI-H2110 cells measured after 8 days; type: functional, cell-based; conditions: NCI-H2110, 192 h

Compound	IC50 [µM]
C/C=C/Cn1cc(-c2ccc(C(C)(C)O)cc2OC)c2cc[nH]c2c1=O	20

system: NCI-H82; test: Cytotoxicity against human NCI-H82 cells measured after 8 days; type: functional, cell-based; conditions: NCI-H82, 192 h

Compound	IC50 [µM]
C/C=C/Cn1cc(-c2ccc(C(C)(C)O)cc2OC)c2cc[nH]c2c1=O	20

system: RERF-LC-MS; test: Cytotoxicity against human RERF-LC-MS cells measured after 8 days; type: functional, cell-based; conditions: 192 h

Compound	IC50 [µM]
C/C=C/Cn1cc(-c2ccc(C(C)(C)O)cc2OC)c2cc[nH]c2c1=O	20

system: ONS-76; test: Cytotoxicity against human ONS-76 cells measured after 8 days; type: functional, cell-based; conditions: ONS-76, 192 h

Compound	IC50 [µM]
C/C=C/Cn1cc(-c2ccc(C(C)(C)O)cc2OC)c2cc[nH]c2c1=O	20

system: HCC38; test: Cytotoxicity against human HCC38 cells measured after 8 days; type: functional, cell-based; conditions: HCC38, 192 h

Compound	IC50 [µM]
C/C=C/Cn1cc(-c2ccc(C(C)(C)O)cc2OC)c2cc[nH]c2c1=O	20

system: not listed separately; test: Cytotoxicity against human OV7 cells measured after 8 days; type: functional, cell-based; conditions: OV7, 192 h

Compound	IC50 [µM]
C/C=C/Cn1cc(-c2ccc(C(C)(C)O)cc2OC)c2cc[nH]c2c1=O	20

system: not listed separately; test: Cytotoxicity against human OVCAR433 cells measured after 8 days; type: functional, cell-based; conditions: OVCAR433, 192 h

Compound	IC50 [µM]
C/C=C/Cn1cc(-c2ccc(C(C)(C)O)cc2OC)c2cc[nH]c2c1=O	20

system: SK-BR-3; test: Cytotoxicity against human SK-BR-3 cells measured after 8 days; type: functional, cell-based; conditions: SK-BR-3, 192 h

Compound	IC50 [µM]
C/C=C/Cn1cc(-c2ccc(C(C)(C)O)cc2OC)c2cc[nH]c2c1=O	20

system: not listed separately; test: Cytotoxicity against human ATRFLOX cells measured after 8 days; type: functional, cell-based; conditions: 192 h

Compound	IC50 [µM]
C/C=C/Cn1cc(-c2ccc(C(C)(C)O)cc2OC)c2cc[nH]c2c1=O	20

system: COLO 205; test: Cytotoxicity against human COLO 205 cells measured after 8 days; type: functional, cell-based; conditions: COLO 205, 192 h

Compound	IC50 [µM]
C/C=C/Cn1cc(-c2ccc(C(C)(C)O)cc2OC)c2cc[nH]c2c1=O	20

system: COLO-741; test: Cytotoxicity against human COLO-741 cells measured after 8 days; type: functional, cell-based; conditions: COLO-741, 192 h

Compound	IC50 [µM]
C/C=C/Cn1cc(-c2ccc(C(C)(C)O)cc2OC)c2cc[nH]c2c1=O	20

system: NCI-H28; test: Cytotoxicity against human NCI-H28 cells measured after 8 days; type: functional, cell-based; conditions: NCI-H28, 192 h

Compound	IC50 [µM]
C/C=C/Cn1cc(-c2ccc(C(C)(C)O)cc2OC)c2cc[nH]c2c1=O	20

system: RKO; test: Cytotoxicity against human RKO cells measured after 8 days; type: functional, cell-based; conditions: 192 h

Compound	IC50 [µM]
C/C=C/Cn1cc(-c2ccc(C(C)(C)O)cc2OC)c2cc[nH]c2c1=O	20

system: SNU-C1; test: Cytotoxicity against human SNU-C1 cells measured after 8 days; type: functional, cell-based; conditions: SNU-C1, 192 h

Compound	IC50 [µM]
C/C=C/Cn1cc(-c2ccc(C(C)(C)O)cc2OC)c2cc[nH]c2c1=O	20

system: SW48; test: Cytotoxicity against human SW48 cells measured after 8 days; type: functional, cell-based; conditions: SW48, 192 h

Compound	IC50 [µM]
C/C=C/Cn1cc(-c2ccc(C(C)(C)O)cc2OC)c2cc[nH]c2c1=O	20

system: Hs 294T; test: Cytotoxicity against human Hs294T cells measured after 8 days; type: functional, cell-based; conditions: 192 h

Compound	IC50 [µM]
C/C=C/Cn1cc(-c2ccc(C(C)(C)O)cc2OC)c2cc[nH]c2c1=O	20

system: MEL-JUSO; test: Cytotoxicity against human MEL-JUSO cells measured after 8 days; type: functional, cell-based; conditions: 192 h

Compound	IC50 [µM]
C/C=C/Cn1cc(-c2ccc(C(C)(C)O)cc2OC)c2cc[nH]c2c1=O	20

system: DV-90; test: Cytotoxicity against human DV-90 cells measured after 8 days; type: functional, cell-based; conditions: DV-90, 192 h

Compound	IC50 [µM]
C/C=C/Cn1cc(-c2ccc(C(C)(C)O)cc2OC)c2cc[nH]c2c1=O	20

system: not listed separately; test: Cytotoxicity against human HCC4019 cells measured after 8 days; type: functional, cell-based; conditions: HCC4019, 192 h

Compound	IC50 [µM]
C/C=C/Cn1cc(-c2ccc(C(C)(C)O)cc2OC)c2cc[nH]c2c1=O	20

target: T1, Bromodomain-containing protein 1 (Homo sapiens, UniProt O95696); test: Binding affinity to human partial length BRD1 (E556 to A688 residues) expressed in bacterial expression system by BROMOscan assay; conditions: not given
T1 sequence (O95696 whole entry): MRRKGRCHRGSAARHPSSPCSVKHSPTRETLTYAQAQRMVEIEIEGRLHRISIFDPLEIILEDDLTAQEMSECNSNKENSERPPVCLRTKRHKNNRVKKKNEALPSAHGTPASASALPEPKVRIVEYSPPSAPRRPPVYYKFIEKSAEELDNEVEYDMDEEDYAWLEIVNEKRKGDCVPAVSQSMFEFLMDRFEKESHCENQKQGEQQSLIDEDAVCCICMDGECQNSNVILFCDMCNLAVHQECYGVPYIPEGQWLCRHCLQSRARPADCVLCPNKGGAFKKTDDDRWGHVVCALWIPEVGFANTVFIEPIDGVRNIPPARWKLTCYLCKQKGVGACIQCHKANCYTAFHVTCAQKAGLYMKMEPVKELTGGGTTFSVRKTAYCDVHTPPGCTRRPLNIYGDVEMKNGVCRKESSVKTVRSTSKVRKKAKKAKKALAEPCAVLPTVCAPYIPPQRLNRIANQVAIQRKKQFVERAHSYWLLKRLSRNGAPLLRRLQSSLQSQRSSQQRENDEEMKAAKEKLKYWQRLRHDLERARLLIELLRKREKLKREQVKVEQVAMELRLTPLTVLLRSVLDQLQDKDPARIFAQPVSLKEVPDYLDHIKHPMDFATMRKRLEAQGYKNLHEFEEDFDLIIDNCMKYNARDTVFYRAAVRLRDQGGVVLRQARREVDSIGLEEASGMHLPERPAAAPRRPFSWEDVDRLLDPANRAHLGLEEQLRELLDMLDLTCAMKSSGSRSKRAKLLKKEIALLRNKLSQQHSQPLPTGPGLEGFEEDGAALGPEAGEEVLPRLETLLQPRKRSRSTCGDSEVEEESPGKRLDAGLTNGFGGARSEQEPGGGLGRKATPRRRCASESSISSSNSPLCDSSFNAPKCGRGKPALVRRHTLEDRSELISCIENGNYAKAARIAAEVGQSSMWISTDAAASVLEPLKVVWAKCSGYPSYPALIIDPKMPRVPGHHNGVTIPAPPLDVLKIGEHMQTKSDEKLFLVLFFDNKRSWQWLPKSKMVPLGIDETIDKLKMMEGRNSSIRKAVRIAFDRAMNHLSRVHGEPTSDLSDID

Compound	Kd [µM]
C/C=C/Cn1cc(-c2ccc(C(C)(C)O)cc2OC)c2cc[nH]c2c1=O	> 10

target: Bromodomain-containing protein 4 (Homo sapiens, UniProt O60885); test: Binding affinity to BRD4 bromodomain 1/2 long isoform (unknown origin) by BROMOscan assay; conditions: not given

Compound	Kd [µM]
C/C=C/Cn1cc(-c2ccc(C(C)(C)O)cc2OC)c2cc[nH]c2c1=O	1.7

target: Bromodomain testis-specific protein (Homo sapiens, UniProt Q58F21); test: Binding affinity to human partial length BRDT bromodomain 2 (K250 to E382 residues) expressed in bacterial expression system by BROMOscan assay; conditions: not given

Compound	Kd [µM]
C/C=C/Cn1cc(-c2ccc(C(C)(C)O)cc2OC)c2cc[nH]c2c1=O	2.6

target: Mitogen-activated protein kinase 14 (Homo sapiens) (UniProt Q16539); test: Inhibition of p38alpha (unknown origin) at 1 uM relative to control; conditions: not given
Sequence (Q16539 whole entry): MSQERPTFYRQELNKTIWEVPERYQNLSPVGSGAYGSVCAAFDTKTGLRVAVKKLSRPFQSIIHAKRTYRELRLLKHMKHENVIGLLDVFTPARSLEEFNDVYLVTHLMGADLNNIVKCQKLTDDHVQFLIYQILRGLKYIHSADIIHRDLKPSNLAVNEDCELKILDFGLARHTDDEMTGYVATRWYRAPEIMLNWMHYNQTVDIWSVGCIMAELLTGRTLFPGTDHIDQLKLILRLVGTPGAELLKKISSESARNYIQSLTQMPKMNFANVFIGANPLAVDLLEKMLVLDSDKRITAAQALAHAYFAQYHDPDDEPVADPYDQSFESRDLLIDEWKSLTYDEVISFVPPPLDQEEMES

Compound	inhibition [%]
C/C=C/Cn1cc(-c2ccc(C(C)(C)O)cc2OC)c2cc[nH]c2c1=O	7

target: cAMP-dependent protein kinase (PKA) (Homo sapiens) (UniProt P22694+P17612+P22612); test: Inhibition of PKA (unknown origin) at 1 uM relative to control; type: protein assay; conditions: not given

Compound	inhibition [%]
C/C=C/Cn1cc(-c2ccc(C(C)(C)O)cc2OC)c2cc[nH]c2c1=O	3

target: Proto-oncogene tyrosine-protein kinase receptor Ret (Homo sapiens) (UniProt P07949); test: Inhibition of Ret (unknown origin) at 1 uM relative to control; conditions: not given
Sequence (P07949 whole entry): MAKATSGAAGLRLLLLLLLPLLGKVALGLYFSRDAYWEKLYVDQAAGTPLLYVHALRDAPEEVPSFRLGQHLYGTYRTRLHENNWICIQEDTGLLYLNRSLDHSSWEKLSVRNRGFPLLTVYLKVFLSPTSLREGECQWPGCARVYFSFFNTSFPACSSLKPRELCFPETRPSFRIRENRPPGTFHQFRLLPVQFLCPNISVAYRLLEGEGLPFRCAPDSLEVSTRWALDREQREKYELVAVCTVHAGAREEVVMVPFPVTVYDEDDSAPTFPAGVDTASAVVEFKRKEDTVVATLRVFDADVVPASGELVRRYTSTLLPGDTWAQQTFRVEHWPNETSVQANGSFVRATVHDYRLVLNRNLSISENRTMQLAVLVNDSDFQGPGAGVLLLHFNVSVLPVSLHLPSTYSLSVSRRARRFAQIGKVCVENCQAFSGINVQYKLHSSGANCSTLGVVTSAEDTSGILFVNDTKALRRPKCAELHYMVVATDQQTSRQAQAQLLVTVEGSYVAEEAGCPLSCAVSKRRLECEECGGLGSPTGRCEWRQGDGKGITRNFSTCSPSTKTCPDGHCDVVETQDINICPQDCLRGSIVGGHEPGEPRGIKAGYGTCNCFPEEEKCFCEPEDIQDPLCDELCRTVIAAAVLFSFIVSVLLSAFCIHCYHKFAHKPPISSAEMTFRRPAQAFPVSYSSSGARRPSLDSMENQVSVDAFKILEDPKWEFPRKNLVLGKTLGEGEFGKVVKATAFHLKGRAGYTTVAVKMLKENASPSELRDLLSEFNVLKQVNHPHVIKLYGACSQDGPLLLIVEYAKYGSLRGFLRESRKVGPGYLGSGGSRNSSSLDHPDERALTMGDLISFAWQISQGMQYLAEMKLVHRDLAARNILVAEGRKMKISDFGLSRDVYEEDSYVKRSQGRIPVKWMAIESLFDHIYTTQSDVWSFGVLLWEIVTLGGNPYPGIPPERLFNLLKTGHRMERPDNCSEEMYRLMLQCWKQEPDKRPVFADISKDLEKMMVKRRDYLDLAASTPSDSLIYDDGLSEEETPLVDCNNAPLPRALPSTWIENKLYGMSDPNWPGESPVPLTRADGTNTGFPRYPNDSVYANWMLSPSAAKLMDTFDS

Compound	inhibition [%]
C/C=C/Cn1cc(-c2ccc(C(C)(C)O)cc2OC)c2cc[nH]c2c1=O	2

target: Serine/threonine-protein kinase SIK2 (Homo sapiens) (UniProt Q9H0K1); test: Inhibition of SIK2 (unknown origin) at 1 uM relative to control; conditions: not given
Sequence (Q9H0K1 whole entry, looked up): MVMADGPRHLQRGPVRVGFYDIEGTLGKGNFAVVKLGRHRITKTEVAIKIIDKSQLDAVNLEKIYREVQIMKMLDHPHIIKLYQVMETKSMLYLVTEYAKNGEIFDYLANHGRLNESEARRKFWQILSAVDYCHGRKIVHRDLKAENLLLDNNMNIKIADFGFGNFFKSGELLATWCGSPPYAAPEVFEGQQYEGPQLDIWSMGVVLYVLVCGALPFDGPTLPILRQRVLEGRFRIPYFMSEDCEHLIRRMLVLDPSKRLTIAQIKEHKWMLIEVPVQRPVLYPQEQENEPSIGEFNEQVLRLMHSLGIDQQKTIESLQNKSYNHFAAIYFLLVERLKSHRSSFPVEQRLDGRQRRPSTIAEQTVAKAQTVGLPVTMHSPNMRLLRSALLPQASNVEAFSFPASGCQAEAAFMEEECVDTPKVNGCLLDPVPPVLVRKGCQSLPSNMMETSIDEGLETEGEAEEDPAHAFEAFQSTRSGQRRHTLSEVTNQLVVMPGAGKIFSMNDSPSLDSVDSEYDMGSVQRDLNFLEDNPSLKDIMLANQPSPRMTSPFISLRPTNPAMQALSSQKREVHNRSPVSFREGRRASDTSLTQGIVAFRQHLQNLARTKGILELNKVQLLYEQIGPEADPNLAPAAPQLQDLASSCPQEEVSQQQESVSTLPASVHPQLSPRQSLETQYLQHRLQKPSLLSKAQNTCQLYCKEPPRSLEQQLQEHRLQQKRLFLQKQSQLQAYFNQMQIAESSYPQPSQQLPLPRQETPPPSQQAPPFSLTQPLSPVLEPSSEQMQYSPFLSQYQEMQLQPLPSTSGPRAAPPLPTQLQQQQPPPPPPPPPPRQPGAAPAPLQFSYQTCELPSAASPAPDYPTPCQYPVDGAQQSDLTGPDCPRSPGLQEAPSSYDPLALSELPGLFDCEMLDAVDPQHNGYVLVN

Compound	inhibition [%]
C/C=C/Cn1cc(-c2ccc(C(C)(C)O)cc2OC)c2cc[nH]c2c1=O	0.5

target: 5-hydroxytryptamine receptor 2A (Homo sapiens) (UniProt P28223); test: Displacement of [3H]ketanserin human recombinant 5-HT2A receptor at 10 uM after 60 mins by scintillation counting analysis relative to control; conditions: not given
Sequence (P28223 whole entry): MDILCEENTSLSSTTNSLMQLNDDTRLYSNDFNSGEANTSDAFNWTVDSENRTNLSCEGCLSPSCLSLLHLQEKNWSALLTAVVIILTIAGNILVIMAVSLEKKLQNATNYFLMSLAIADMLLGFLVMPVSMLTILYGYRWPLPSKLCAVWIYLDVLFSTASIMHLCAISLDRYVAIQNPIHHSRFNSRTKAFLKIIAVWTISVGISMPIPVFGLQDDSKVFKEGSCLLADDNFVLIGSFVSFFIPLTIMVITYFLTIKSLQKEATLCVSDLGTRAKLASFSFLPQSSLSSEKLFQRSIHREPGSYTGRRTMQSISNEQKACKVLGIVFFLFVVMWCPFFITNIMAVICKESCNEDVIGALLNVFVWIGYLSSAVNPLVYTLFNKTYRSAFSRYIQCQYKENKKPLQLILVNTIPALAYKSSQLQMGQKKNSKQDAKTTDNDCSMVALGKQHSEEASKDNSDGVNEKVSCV

Compound	Activity [%]
C/C=C/Cn1cc(-c2ccc(C(C)(C)O)cc2OC)c2cc[nH]c2c1=O	0

target: 5-hydroxytryptamine receptor 2B (Homo sapiens) (UniProt P41595); test: Displacement of [125I]+/-DOI from human recombinant 5-HT2B receptor at 10 uM after 60 mins by scintillation counting analysis relative to control; conditions: not given
Sequence (P41595 whole entry): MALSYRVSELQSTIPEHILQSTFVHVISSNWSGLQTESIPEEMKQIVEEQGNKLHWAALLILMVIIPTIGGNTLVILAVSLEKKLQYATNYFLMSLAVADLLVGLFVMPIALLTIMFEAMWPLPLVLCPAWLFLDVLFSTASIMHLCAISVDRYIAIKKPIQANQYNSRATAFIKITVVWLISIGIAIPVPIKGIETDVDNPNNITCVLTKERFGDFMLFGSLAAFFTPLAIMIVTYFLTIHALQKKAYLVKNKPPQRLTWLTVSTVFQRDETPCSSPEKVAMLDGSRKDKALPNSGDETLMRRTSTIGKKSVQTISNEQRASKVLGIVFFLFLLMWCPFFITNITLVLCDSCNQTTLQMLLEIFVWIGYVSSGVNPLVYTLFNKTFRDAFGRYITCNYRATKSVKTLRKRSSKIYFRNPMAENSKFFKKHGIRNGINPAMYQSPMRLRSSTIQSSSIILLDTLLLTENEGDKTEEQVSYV

Compound	Activity [%]
C/C=C/Cn1cc(-c2ccc(C(C)(C)O)cc2OC)c2cc[nH]c2c1=O	-2

organism: Homo sapiens; test: Displacement of [3H] Dofetilide from human potassium channel at 10 uM relative to control; conditions: not given

Compound	Activity [%]
C/C=C/Cn1cc(-c2ccc(C(C)(C)O)cc2OC)c2cc[nH]c2c1=O	-5
